Test results reported in patent publication US20250230193A1, “CYCLIC COMPOUND HAVING SELECTIVE KRAS INHIBITORY EFFECT ON HRAS AND NRAS” (CHUGAI SEIYAKU KABUSHIKI KAISHA, priority 2022, published 2025).
Where a SMILES comes first, the peptide text is derived from it. Bridges are numbered along the chain shown (N, C = ends). [ ]: non-standard residue; d: D form. The star is where a group is joined. hPhe(3-Cl-4-CF3) = N[C@@H](CCc1ccc(C(F)(F)F)c(Cl)c1)C(=O)O; NPrPhe(4-CF3) = CCCN[C@@H](Cc1ccc(C(F)(F)F)cc1)C(=O)O; NMeGly(cPent) = CN[C@H](C(=O)O)C1CCCC1; Pro(4,4-F2) = O=C(O)[C@@H]1CC(F)(F)CN1; NMeD = CN[C@@H](CC(=O)O)C(=O)O; NMeL = CN[C@@H](CC(C)C)C(=O)O; Morpholide = C1CN(*)CCO1; Ac5c = NC1(C(=O)O)CCCC1; Aze = O=C(O)[C@@H]1CCN1; NPrGly = CCCNCC(=O)O; Sar = CNCC(=O)O

What was measured:
[1] = target: GDP-bound NRAS wild-type protein (Homo sapiens, UniProt P01111); assay: Binding to NRAS by surface plasmon resonance (SPR), Single Cycle Kinetics
[2] = target: GDP-bound HRAS wild-type protein (Homo sapiens, UniProt P01112); assay: Binding to HRAS by surface plasmon resonance (SPR), Single Cycle Kinetics
[3] = SPR, GDP-bound wild-type proteins
[4] = GDP-bound NRAS wild-type vs GDP-bound KRAS wild-type, SPR
[5] = GDP-bound HRAS wild-type vs GDP-bound KRAS wild-type, SPR

Sequence of GDP-bound HRAS wild-type protein (P01112 whole entry): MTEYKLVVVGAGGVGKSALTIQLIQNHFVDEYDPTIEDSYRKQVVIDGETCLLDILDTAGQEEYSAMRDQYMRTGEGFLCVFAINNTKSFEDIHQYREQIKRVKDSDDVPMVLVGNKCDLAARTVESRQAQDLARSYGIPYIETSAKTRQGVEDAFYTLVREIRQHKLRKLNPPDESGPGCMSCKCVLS
Sequence of GDP-bound NRAS wild-type protein (P01111 whole entry): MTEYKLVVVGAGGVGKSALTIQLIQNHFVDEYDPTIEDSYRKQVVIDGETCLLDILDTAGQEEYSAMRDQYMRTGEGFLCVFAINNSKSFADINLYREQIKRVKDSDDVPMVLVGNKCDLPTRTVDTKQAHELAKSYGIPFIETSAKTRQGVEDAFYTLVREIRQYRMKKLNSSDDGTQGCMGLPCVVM

C=CCN1CC(=O)N(C)[C@H]2C/C=C\CCN(C2=O)[C@@H](Cc2ccc(C(F)(F)F)cc2)C(=O)N(C)CC(=O)N[C@@H](CCc2cc(F)c(C(F)(F)F)c(F)c2)C(=O)N2C[C@H](OCC)C[C@H]2C(=O)NC2(CC(C)(C)C2)C(=O)N(C)[C@@H](C2CCCC2)C(=O)N(C)[C@H](C(=O)N(C)C)CC(=O)N(C)[C@@H](CCC)C(=O)N[C@@H]([C@@H](C)CC)C1=O [PP2102]
NRAS/KRAS (ratio of KD value with respect to NRAS to KD value with respect to KRAS) ([1]; SPR, GDP-bound NRAS wild-type vs GDP-bound KRAS wild-type): A (a compound having 10 or more and less than 20 is denoted as A)
HRAS/KRAS (ratio of KD value with respect to HRAS to KD value with respect to KRAS) ([2]; SPR, GDP-bound HRAS wild-type vs GDP-bound KRAS wild-type): A (a compound having 10 or more and less than 20 is denoted as A)

CCC[C@H]1C(=O)N[C@@H]([C@@H](C)CC)C(=O)N2CCC[C@H]2C(=O)N(C)[C@H]2C/C=C\CCN(C2=O)[C@@H](Cc2ccc(C)cc2)C(=O)N(C)CC(=O)N[C@@H](CCc2cc(F)c(C(F)(F)F)c(F)c2)C(=O)N2C[C@H](OCC)C[C@H]2C(=O)N(C)C2(CCC2)C(=O)N(C)[C@@H](C2CCCC2)C(=O)N(C)[C@H](C(=O)N2CCCCC2)CC(=O)N1C [PP3115, (1S,4S,10S,13S,17S,20S,26S,28R,32S,38S,42Z)-20-cyclopentyl-32-[2-[3,5-difluoro-4-(trifluoromethyl)phenyl]ethyl]-28-ethoxy-2,14,18,21,24,36-hexamethyl-10-[(1S)-1-methylpropyl]-17-(piperidine-1-carbonyl)-13-propyl-38-(p-tolylmethyl)spiro[2,8,11,14,18,21,24,30,33,36,39-undecazatetracyclo[37.5.1.0^4,8.0^26,30]pentatetracont-42-ene-23,1′-cyclobutane]-3,9,12,15,19,22,25,31,34,37,45-undecone]
NRAS/KRAS (ratio of KD value with respect to GDP-bound NRAS wild-type protein to KD value with respect to KRAS) [1, 3]: A (a compound having 10 or more and less than 20 is denoted as A)
HRAS/KRAS (ratio of KD value with respect to GDP-bound HRAS wild-type protein to KD value with respect to KRAS) [2, 3]: B (a compound having 3 or more and less than 10 is denoted as B)

CCC(CC)[C@H]1C(=O)N(C)[C@H](C(=O)N(C)C)CC(=O)N(C)[C@H]2CCC/C=C/c3ccc(cc3)C[C@@H](C(=O)N(C)CC(=O)N[C@@H](CCc3ccc(Cl)c(Cl)c3)C(=O)N3CCC[C@H]3C(=O)NC3(CC(C)(C)C3)C(=O)N1C)N1CC/C=C\C[C@@H](C1=O)N(C)C(=O)CN(C)C(=O)[C@H]([C@@H](C)CC)NC2=O [PP2603]
NRAS/KRAS (ratio of KD value with respect to GDP-bound NRAS wild-type protein to KD value with respect to KRAS) ([1]; class symbols): AA (a compound having 20 or more is denoted as AA)
HRAS/KRAS (ratio of KD value with respect to GDP-bound HRAS wild-type protein to KD value with respect to KRAS) ([2]; class symbols): A (a compound having 10 or more and less than 20 is denoted as A)

CCCN1CC(=O)N2CC[C@H]2C(=O)N(CCC)[C@@H](Cc2ccc(C(F)(F)F)cc2)C(=O)N(C)CC(=O)N[C@@H](CCc2ccc(C(F)(F)F)c(Cl)c2)C(=O)N2CCC[C@H]2C(=O)NC2(CCCC2)C(=O)N(C)[C@@H](C2CCCC2)C(=O)N(C)[C@H](C(=O)N2CCOCC2)CC(=O)N(C)[C@@H](CC(C)C)C(=O)N[C@@H]([C@@H](C)CC)C1=O [PP0274] ([NMeL]I[NPrGly][Aze][NPrPhe(4-CF3)][Sar][hPhe(3-Cl-4-CF3)]P[Ac5c][NMeGly(cPent)][NMeD]-Morpholide; lactam N-11)
NRAS/KRAS (ratio of KD for GDP-bound NRAS wild-type to KD for KRAS) ([1]; SPR): C (A compound having a KD ratio of 0.1 or more and less than 3 is denoted as C)
HRAS/KRAS (ratio of KD for GDP-bound HRAS wild-type to KD for KRAS) ([2]; SPR): B (a compound having 3 or more and less than 10 is denoted as B)

CC[C@H](C)[C@@H]1NC(=O)[C@H](C2CC2)N(C)C(=O)C[C@@H](C(=O)N(C)C)N(C)C(=O)[C@H](C2CCCC2)N(C)C(=O)C2(CCC2)N(C)C(=O)[C@@H]2C[C@@H](C)CN2C(=O)[C@H](CCc2cc(F)c(C(F)(F)F)c(F)c2)NC(=O)CN(C)C(=O)[C@H](Cc2ccc(C)cc2)N2CC/C=C\C[C@@H](C2=O)N(C)C(=O)CN(C)C1=O [PP1788]
NRAS/KRAS (ratio of KD value for NRAS to KD value for KRAS) [1, 4]: B (a compound having 3 or more and less than 10 is denoted as B)
HRAS/KRAS (ratio of KD value for HRAS to KD value for KRAS) [2, 5]: B (a compound having 3 or more and less than 10 is denoted as B)

CC[C@H](C)[C@@H]1NC(=O)[C@H](C2CC2)N(C)C(=O)C[C@@H](C(=O)N(C)CC)N(C)C(=O)[C@H](C2CCCC2)N(C)C(=O)C2(CC(C)(C)C2)NC(=O)[C@@H]2C[C@H](C)CN2C(=O)[C@H](CCc2cc(F)c(C(F)(F)F)c(F)c2)NC(=O)CN(C)C(=O)[C@H](Cc2ccc(C(F)(F)F)cc2)N2CC/C=C\C[C@@H](C2=O)N(C)C(=O)CN(C)C1=O [PP1980]
NRAS/KRAS (ratio of KD value for NRAS to KD value for KRAS) [1, 4]: A (a compound having 10 or more and less than 20 is denoted as A)
HRAS/KRAS (ratio of KD value for HRAS to KD value for KRAS) [2, 5]: B (a compound having 3 or more and less than 10 is denoted as B)

CCCN1C(=O)CN(C)C(=O)[C@@H]2CCN2C(=O)[C@H]([C@@H](C)CC)NC(=O)[C@H](CC(C)C)N(C)C(=O)C[C@@H](C(=O)N2CCOCC2)NC(=O)[C@H](C2CCCC2)N(C)C(=O)C2(CCCC2)NC(=O)[C@@H]2CC(F)(F)CN2C(=O)[C@H](CCc2ccc(C(F)(F)F)c(Cl)c2)NC(=O)CN(C)C(=O)[C@@H]1Cc1ccc(C(F)(F)F)cc1 [PP0339] ([NMeL]I[Aze][Sar][NPrPhe(4-CF3)][Sar][hPhe(3-Cl-4-CF3)][Pro(4,4-F2)][Ac5c][NMeGly(cPent)]D-Morpholide; lactam N-11)
NRAS/KRAS (ratio of KD for GDP-bound NRAS wild-type to KD for KRAS) ([1]; SPR): B (a compound having 3 or more and less than 10 is denoted as B)
HRAS/KRAS (ratio of KD for GDP-bound HRAS wild-type to KD for KRAS) ([2]; SPR): B (a compound having 3 or more and less than 10 is denoted as B)
